The record followed here is patent US9718823B2, “2, 6-Di-nitrogen-containing substituted purine derivative, and preparation method, pharmaceutical composition and use thereof” (Zhejiang Medicine Co., Ltd. Xinchang Pharmaceutical Factory, priority 2013, dated 2017).

Assay [1] concerns PC-3 human prostate cancer cell strain. Nature of the assay: Antitumor cell proliferation in vitro, CCK-8 detection kit, PC-3. To be noted: Homo sapiens, PC-3, 72 h, PC-3 cells, 1st and 2nd test where printed. The assay is classed as cell-based. The protocol:
(§1) The half inhibitory concentration IC50 of proliferation of three kinds of tumor cell strain (U87MG, PC-3, BT474) for 12 candidate compounds of the present invention is detected by CCK-8 detection kits.
PC-3 human prostate cancer cell strain (cell bank of Chinese Academy of Sciences)
(§2) The studied compounds are dissolved by DMSO to make the final concentration 10 mM.
(§3) • a) Collecting the cells in logarithmic phase, counting, and resuspending the cells with complete medium. • b) Adjusting the concentration of cells to a suitable concentration, inoculating in 96 well plates, each well is inoculated to 100 μl cell suspension.
(§4) c) incubating cells for 24 hours in a 5% CO2 incubator at temperature of 37° C., under the condition of 100% relative humidity.
(§5) a) The cells in logarithmic phase is collected, counted, resuspended with complete medium. The concentration of cells is adjusted to a suitable concentration (determined in accordance with the optimizable test results of cell density), and the cells is inoculated in 96 well plates, wherein each well is inoculated 100 μl cell suspension, Cells are incubated for 24 hours in 5% CO2 incubator at temperature of 37° C. under the condition of 100% relative humidity.
(§6) b) The test compounds are diluted to 500 μM with culture medium, then diluted in series eight times. […] as 25 μl/well. The final concentrations of the compounds are diluted from 100 μM to 0 μM, with 4 times dilution, and there are a total of 10 concentration points.
(§7) c) Cells are incubated for 72 hours in 5% CO2 incubator at temperature of 37° C. under the condition of 100% relative humidity.
(§8) d) The culture medium is aspirated and discarded, and complete medium containing 10% CCK-8 is incubated in a incubator at 37° C. for 2˜4 hours.
(§9) e) After shocking gently, the absorbance of the culture medium is measured at 450 nm wavelength on SpectraMax M5 Microplate Reader, with the absorbance at 650 nm as reference, to calculate the inhibition rate.

The test system of assay [2] is U87MG human glioblastoma Multiforme cell strain. Nature of the assay: Antitumor cell proliferation in vitro, CCK-8 detection kit, U87MG. The assay is classed as cell-based. To be noted: U-87 MG, 72 h, U-87MG cells, 1st and 2nd test where printed. The protocol: as §1
U87MG human glioblastoma Multiforme cell strain (cell bank of Chinese Academy of Sciences)
as §2, §3, §4, §5, §6, §7, §8, §9
On the technique in general: Formazan colour is commonly taken as a measure of viable cells.

In assay [3] the test system is BT474 human breast cancer cell strain. The experiment in a line: Antitumor cell proliferation in vitro, CCK-8 detection kit, BT474. The assay is classed as cell-based. To be noted: Homo sapiens, BT-474, 72 h, BT-474 cells, 1st and 2nd test where printed. As to the method:
as §1
BT474 human breast cancer cell strain (cell bank of Chinese Academy of Sciences) Reagents and materials:
as §2, §3, §4, §5, §6, §7, §8, §9

In assay [4] the test system is PC-3 cell Akt (Ser473) phosphorylation. Nature of the assay: Inhibition of phosphorylation level of PC-3 cell Akt (Ser473), Cisbio HTRF phospho Akt (Ser473) cell-based assay. Set-up: species or system human. To be noted: Homo sapiens, PC-3, PC-3 cells, hEGF 100 ng/ml stimulation; 1st and 2nd test where printed. The protocol: The inhibitory activity of the compounds of present invention to the phosphorylation level of PC-3 cell Akt (Ser473) is studied by using Cisbio HTRF phospho Akt (Ser473) cell-based assay test kit.
Cell strain: PC-3 prostate cancer cells line (cell bank of Chinese Academy of Sciences) is cultured by using culture medium (F12K+10% FBS).
hEGF is prepared as stock solution of 100 ug/ml with 10 mM acetic acid, and the stock solution is diluted to 200 ng/ml with serum-free medium, added 50 ul to each well to be stimulated.
b) Preparation of Complete Lysate • 4×Lysis Buffer is diluted 4 times with ddH2O to prepare 1×Lysis Buffer. • 100×Blocking Reagent is diluted 100 times with 1×Lysis Buffer.
c) Preparation of Detection Liquid • 20×Anti-Phospho-Akt is diluted 20 times with Detection Buffer. • 20×Anti-Akt is diluted 20 times with Detection Buffer.
The compounds are diluted with DMSO, and the working concentration of compounds is 100 times of detection concentration.
Cells in logarithmic growth phase are collected, counted, and resuspended with complete culture medium;
The cell concentration is adjusted to appropriate concentration, and cell suspension is inoculated into 96 well plates at 50 μl per well;
Cells are incubated for more than 4 h in the 5% CO2 incubator at temperature of 37° C., relative humidity of 100%;
Cell plate is removed from the incubator. The cell suspension is aspirated gently, and 50 ul serum-free F12K medium is quickly added, then the cell plate is placed into the incubator to culture overnight.
The compounds are diluted in a linear gradient with DMSO.
0.5 ul compounds is added into the test well, mixed on oscillators, and incubated at room temperature for 2 hours.
Proportioned hEGF solution is added to test well at 50 μl per well, and the final concentration is 100 ng/ml. serum-free medium is added into The negative control well at 50 μl per well.
The solution is mixed on oscillator and incubated at room temperature for 2 hours.
The liquid in 96 well plates is aspirated by multichannel pipette or the supernatant is discarded gently. The proportioned complete lysate is added quickly at 50 μl per well.
The solution is mixed on oscillator and lysed at room temperature for 30 min.
16 μl cell lysate is transferred from the 96 well plates to white low volume 384 well plates, and the proportioned two pairs of detection antibody are added. The solution is mixed on oscillator, and incubated at room temperature for 4 hours to detect the readings.

Assay [5] has as its target T1, PI3K α (Homo sapiens, UniProt P42336).
T1 construct: purchased Millipore 14-602
Nature of the assay: Inhibitory activity to PI3K α, PI 3-Kinase (human) HTRF Assay kit. It is filed as biochemical. To be noted: read-out: % Inhibition Rate to PI3K α. The method, boiled down: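 HTRF assay using human PI3Kα at 8 ng/well, 100 μM ATP and PIP2 (2× working stock 20 μM) in 20 μL reaction containing 1% DMSO. Screened at 10 μM and 1 μM for percent inhibition, with selected compounds then taken to IC50 determination.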
(In general: Time-resolved FRET reads energy transfer from a long-lived donor to a nearby acceptor.)

Assay [6] addresses T2, PI3Kδ (Homo sapiens, UniProt O00329).
T2 construct: purchased Millipore 14-604
The experiment in a line: Inhibitory activity to PI3K δ, PI 3-Kinase (human) HTRF Assay kit. The assay is classed as biochemical. To be noted: for Inhibition rate % to PI3K delta: dihydrate di-methanesulfonate. The method, boiled down: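 Inhibition of human PI3Kδ was assessed with the Millipore PI 3-Kinase (human) HTRF Assay kit. PI3Kδ was screened at 2 ng/well, diluted in 2×PIP2 operating fluid. Reactions were 20 μL and contained 100 μM ATP. Stop solution was Stop A and Stop B mixed 3:1. Detection solution was DM C, DM A and DM B mixed 18:1:1. Compounds were prepared from DMSO stocks, and percent inhibition was reported.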

Where [7] appears, read: 1 μM (Table 7), read-out: Inhibition rate % to PI3Kδ.
Where [8] appears, read: 10 μM (Table 7), read-out: Inhibition rate % to PI3Kδ.

Each structure is given as a SMILES string. pIC50: −log10 of the molar value. Like-named read-outs stand apart in the source and are kept apart here.

T1 sequence (P42336 whole entry): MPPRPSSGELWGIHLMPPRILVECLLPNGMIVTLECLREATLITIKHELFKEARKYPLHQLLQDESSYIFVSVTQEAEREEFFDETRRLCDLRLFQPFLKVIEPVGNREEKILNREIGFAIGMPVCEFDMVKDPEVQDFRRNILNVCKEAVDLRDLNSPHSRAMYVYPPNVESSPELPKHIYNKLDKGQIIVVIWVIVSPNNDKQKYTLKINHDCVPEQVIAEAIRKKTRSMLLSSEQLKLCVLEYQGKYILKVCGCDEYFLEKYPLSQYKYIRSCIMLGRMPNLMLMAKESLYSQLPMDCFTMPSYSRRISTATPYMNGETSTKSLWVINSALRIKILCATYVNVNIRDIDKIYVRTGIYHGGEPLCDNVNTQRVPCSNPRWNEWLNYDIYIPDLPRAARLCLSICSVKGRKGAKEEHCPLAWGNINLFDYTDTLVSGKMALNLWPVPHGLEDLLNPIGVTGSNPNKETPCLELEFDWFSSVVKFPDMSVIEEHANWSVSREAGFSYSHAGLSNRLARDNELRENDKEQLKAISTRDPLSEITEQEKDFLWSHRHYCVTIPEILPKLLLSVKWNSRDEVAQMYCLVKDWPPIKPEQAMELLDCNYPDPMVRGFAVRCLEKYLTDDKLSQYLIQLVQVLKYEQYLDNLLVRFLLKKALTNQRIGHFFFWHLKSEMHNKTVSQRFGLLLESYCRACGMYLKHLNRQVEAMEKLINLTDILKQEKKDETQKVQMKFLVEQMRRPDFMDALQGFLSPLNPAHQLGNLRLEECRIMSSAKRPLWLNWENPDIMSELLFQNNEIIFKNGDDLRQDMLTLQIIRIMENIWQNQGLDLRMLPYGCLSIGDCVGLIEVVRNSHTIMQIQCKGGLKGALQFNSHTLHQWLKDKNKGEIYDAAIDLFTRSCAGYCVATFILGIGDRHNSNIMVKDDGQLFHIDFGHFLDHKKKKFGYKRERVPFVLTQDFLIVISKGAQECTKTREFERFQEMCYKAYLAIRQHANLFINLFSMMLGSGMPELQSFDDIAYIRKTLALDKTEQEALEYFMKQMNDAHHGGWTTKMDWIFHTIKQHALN
T1 sequence (P27986 whole entry partner): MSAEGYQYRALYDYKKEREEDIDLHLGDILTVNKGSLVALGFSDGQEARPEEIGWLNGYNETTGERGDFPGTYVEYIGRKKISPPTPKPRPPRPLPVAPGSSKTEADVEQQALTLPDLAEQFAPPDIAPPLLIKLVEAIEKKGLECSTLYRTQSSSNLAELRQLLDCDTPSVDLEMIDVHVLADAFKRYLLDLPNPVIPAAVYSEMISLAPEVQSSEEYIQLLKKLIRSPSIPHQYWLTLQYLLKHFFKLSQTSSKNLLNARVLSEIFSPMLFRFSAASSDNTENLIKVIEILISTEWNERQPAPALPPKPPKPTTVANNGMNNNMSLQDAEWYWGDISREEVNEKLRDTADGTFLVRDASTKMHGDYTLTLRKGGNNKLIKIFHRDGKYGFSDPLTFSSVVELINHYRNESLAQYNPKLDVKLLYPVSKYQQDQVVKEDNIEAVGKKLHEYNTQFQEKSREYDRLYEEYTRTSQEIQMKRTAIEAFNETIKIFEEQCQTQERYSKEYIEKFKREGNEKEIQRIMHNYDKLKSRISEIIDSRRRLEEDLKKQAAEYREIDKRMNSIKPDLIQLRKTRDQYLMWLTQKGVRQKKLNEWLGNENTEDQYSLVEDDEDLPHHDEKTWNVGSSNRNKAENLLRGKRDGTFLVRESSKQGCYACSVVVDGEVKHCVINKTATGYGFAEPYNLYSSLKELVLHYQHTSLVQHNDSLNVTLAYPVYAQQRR
T2 sequence (O00329 whole entry): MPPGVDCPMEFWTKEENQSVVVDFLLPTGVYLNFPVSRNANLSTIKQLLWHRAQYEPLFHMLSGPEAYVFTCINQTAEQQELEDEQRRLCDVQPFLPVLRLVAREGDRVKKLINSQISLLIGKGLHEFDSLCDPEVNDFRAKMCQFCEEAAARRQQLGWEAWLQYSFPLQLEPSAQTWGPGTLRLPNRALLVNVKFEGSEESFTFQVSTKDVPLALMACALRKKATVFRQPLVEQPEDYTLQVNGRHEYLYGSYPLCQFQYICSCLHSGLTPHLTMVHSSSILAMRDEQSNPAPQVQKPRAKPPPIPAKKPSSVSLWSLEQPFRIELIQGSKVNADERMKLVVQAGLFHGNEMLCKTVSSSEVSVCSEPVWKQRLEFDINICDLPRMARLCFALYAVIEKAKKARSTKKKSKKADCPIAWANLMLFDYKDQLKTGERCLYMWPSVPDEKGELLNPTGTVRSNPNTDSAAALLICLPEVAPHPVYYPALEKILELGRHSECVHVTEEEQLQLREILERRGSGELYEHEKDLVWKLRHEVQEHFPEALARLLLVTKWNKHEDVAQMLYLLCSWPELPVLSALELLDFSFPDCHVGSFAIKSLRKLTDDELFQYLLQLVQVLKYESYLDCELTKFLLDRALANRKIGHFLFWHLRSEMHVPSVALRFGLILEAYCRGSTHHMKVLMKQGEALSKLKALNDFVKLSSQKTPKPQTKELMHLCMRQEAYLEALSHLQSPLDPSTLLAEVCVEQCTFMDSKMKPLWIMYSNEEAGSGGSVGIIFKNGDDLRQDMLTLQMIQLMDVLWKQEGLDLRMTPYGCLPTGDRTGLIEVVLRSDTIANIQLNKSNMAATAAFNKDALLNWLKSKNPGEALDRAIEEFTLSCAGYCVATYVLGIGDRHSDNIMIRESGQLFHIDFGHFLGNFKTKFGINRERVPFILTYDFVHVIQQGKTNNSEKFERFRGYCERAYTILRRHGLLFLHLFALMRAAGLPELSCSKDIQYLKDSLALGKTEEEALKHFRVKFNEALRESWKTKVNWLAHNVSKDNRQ
T2 sequence (P27986 whole entry partner): as the sequence (P27986 whole entry partner) above

By pIC50 is commonly meant the negative decadic logarithm of the IC50, by convention in mol/L. For orientation: IC50 means the point on the concentration scale where inhibition reaches its midpoint. High values mean lower potency, low ones higher potency. For `CC(C)Nc1nc(Nc2ccc3nccc(-c4ccccc4)c3c2)nc2[nH]cnc12` [MED1007-101, N6-isopropyl-N2-(4-phenylquinoline-6-yl)-9H-purine-2,6-diamine], the pIC50 in assay [1] is 6.21; in assay [2] it was 5.07; in assay [3], 6.36. This compound displayed an IC50 in assay [4] of 67 nM. The inhibition at 1 µM came to 49.5% in assay [5] and 75.7% in assay [6] (setting [7]). Moreover, the inhibition at 10 µM in assay [5] amounted to 126%; in assay [6] (setting [8]), 95.6%.
For `CC(C)Oc1nc(Nc2ccc3ncccc3c2)nc2[nH]cnc12` [MED1007-104, N-(6-isopropoxy-9H-purine-2-yl) quinoline-6-amine], the pIC50 was 5.77 in assay [1], 4.74 in assay [2] and 5.87 in assay [3]. For the same compound, in assay [5], the inhibition at 1 µM was 60.3%. Also, the inhibition at 10 µM in assay [5] is 106%. Further, the “Inhibition rate % to PI3Kδ” value was 57.14% in assay [6] (1 μM (Table 7), 1 µM) and 85.86% in assay [6] (10 μM (Table 7), 10 µM).
With `CCC(CC)Oc1nc(Nc2ccc3nccc(-c4ccccc4)c3c2)nc2[nH]cnc12` [MED1007-105, N-(6-(pentyl-3-yloxyl)-9H-purine-2-yl)-4-phenyl quinoline-6-amine], the pIC50 in assay [1] is 5.99; in assay [2] it was 4.39; in assay [3], 6.38. In addition, the inhibition at 1 µM in assay [5] is 60.4%; in assay [6] (setting [7]), 74.2%. The inhibition at 10 µM is 111% in assay [5] and 105% in assay [6] (setting [8]).
Consider `c1ccc(-c2ccnc3ccc(Nc4nc(N5CCOCC5)c5nc[nH]c5n4)cc23)cc1` [MED1007-109S, N-(6-morpholine-9H-purine-2-yl)-4-phenyl quinoline-6-amine dihydrate di-methanesulfonate], for which the pIC50 in assay [1] was 6.16; in assay [2], 4.74; in assay [3], 6.21. Further, the concentration for half-maximal inhibition (IC50) in assay [4] was found to be 116 nM. Also, the “Inhibition rate % to PI3K delta” value was 30.22% in assay [6] (0.4 μM (Table 8), 0.4 µM); 57.34% in assay [6] (2 μM (Table 8), 2 µM); 94.36% in assay [6] (10 μM (Table 8), 10 µM).
As for `c1cc(C2CC2)c2cc(Nc3nc(NC4CC4)c4nc[nH]c4n3)ccc2n1` [MED1007-115, N6-cyclopropyl-N2-(4-cyclopropylquinoline-6-yl)-9H-purine-2,6-diamine dihydrate di-methanesulfonate], the values for the pIC50 in assay [1], in assay [2] and in assay [3] were 5.80, 5.13 and 5.71, respectively. The compound further returned an IC50 in assay [4] of 260 nM. The inhibition at 0.4 µM in assay [6] (0.4 μM (Table 8), read-out: Inhibition rate % to PI3K delta) turned out to be 36.8%. Besides, the inhibition at 2 µM in assay [6] (2 μM (Table 8), read-out: Inhibition rate % to PI3K delta) is 60.2%. Besides, the inhibition at 10 µM in assay [6] (10 μM (Table 8), read-out: Inhibition rate % to PI3K delta) was 94.6%.
